Experimental data taken from ChEMBL document CHEMBL1121764, “Synthesis of some novel amodiaquine analogues as potential antimalarial and antifilarial compounds” (J Med Chem, 1981).

Tests used:
breinlia booliati [1] = assay: Time taken for In vitro anti-filarial activity to immobilize breinlia booliati (Microfilaria); assay type: functional
breinlia booliati [2] = assay: Time taken for In vitro anti-filarial activity to immobilize breinlia booliati (adult worms); assay type: functional
Mus musculus [3] = species on record: Mus musculus; assay: Lethal dose that killed mice in 48 hr; assay type: toxicity, organism-based; settings: in vivo
Mus musculus [4] = species on record: Mus musculus; assay: Minimum effective dose which on 5th day reduced the mean infection level to one-fiftieth of the control; No activity observed at a dose range of 0.05-2.0 mg (HCl) per 20 g
Mus musculus [5] = species on record: Mus musculus; assay: Minimum effective dose which on 5th day reduced the mean infection level to one-fiftieth of the control; assay type: functional
[6] = Ratio of activity of quinine versus compound against Plasmodium berghei in mice; assay type: functional

| Compound | TIME (breinlia booliati [1]) [h] | TIME (breinlia booliati [2]) [h] | LD app (Mus musculus [3]) [mM/kg] | MED (Mus musculus [4]) | MED (Mus musculus [5]) | Ratio [6] |
| --- | --- | --- | --- | --- | --- | --- |
| CCN(CC)C(=O)N1CCN(C)CC1 [DIETHYLCARBAMAZINE] | 4 | 2 | 1.34 | – | – | – |
| CCN(CC)C(=O)N(CC)Cc1cc(Nc2ccnc3cc(Cl)ccc23)ccc1O | 8 | 8 | – | No activity | – | – |
| CN1CCN(C(=O)NCc2cc(Nc3ccnc4cc(Cl)ccc34)ccc2O)CC1 | 7 | 5 | 0.66 | – | 0.043 (mg of base) 20g-1 | 28.4 |
| CCN(CC)C(=O)NCc1cc(Nc2ccnc3cc(Cl)ccc23)ccc1OC | 8 | 8 | – | No activity | – | – |
| CCN(CC)C(=O)NCc1cc(Nc2ccnc3cc(Cl)ccc23)ccc1O | 8 | 8 | – | No activity | – | – |
| CCN(CC)Cc1cc(Nc2ccnc3cc(Cl)ccc23)ccc1O.Cl | 3 | 3 | 0.32 | – | 0.077 (mg of base) 20g-1 | 15.8 |
| CCN(CC)C(=O)N1CCN(Cc2cc(Nc3ccnc4cc(Cl)ccc34)ccc2OC)CC1 | 6 | 3 | 0.41 | – | 0.43 (mg of base) 20g-1 | 2.8 |
| CCN(CC)C(=O)N(CC)Cc1cc(Nc2ccnc3cc(Cl)ccc23)ccc1OC | 8 | 8 | – | No activity | – | – |
| CCN(Cc1cc(Nc2ccnc3cc(Cl)ccc23)ccc1O)C(=O)N1CCN(C)CC1 | 3 | 3 | 0.76 | – | 0.21 (mg of base) 20g-1 | 5.8 |
| CCN(Cc1cc(Nc2ccnc3cc(Cl)ccc23)ccc1OC)C(=O)N1CCN(C)CC1 | 3 | 3 | 0.63 | – | 0.43 (mg of base) 20g-1 | 2.8 |
| CCN(CC)C(=O)N1CCN(Cc2cc(Nc3ccnc4cc(Cl)ccc34)ccc2O)CC1 | 6 | 3 | 0.37 | – | 0.43 (mg of base) 20g-1 | 2.8 |
| COc1ccc(Nc2ccnc3cc(Cl)ccc23)cc1CNC(=O)N1CCN(C)CC1 | 7 | 5 | 0.68 | – | 0.43 (mg of base) 20g-1 | 2.8 |
